The term clearance denotes a measure of how efficiently the substance is removed, as volume per time. A word on the AUC: it is the area under the concentration-time curve, a measure of exposure. By bioavailability is commonly meant dose-corrected exposure relative to a reference, in per cent. The low end stands for little systemic uptake, the high end for much systemic uptake. By Cmax is commonly meant the peak of the concentration-time curve.

Experimental findings from ChEMBL document CHEMBL4184335, “Synthesis, Structure-Activity Relationships, and Preclinical Evaluation of Heteroaromatic Amides and 1,3,4-Oxadiazole Derivatives as 5-HT4 Receptor Partial Agonists” (J Med Chem, 2018) are described below.

A short description of series [1]: in vitro. As to conditions: rat, liver microsomes.
Series [2] can be described thus: in vivo. As to conditions: Wistar, rat, iv, 1 mg/kg.
The nature of series [3]: in vitro. As to conditions: human, liver microsomes. (In general: Liver microsomes are a subcellular fraction often used to study metabolism.)
Series [4] can be described thus: in vivo. As to conditions: Wistar, rat.
The nature of series [5]: in vivo. As to conditions: Wistar, rat, po, 3 mg/kg.
Series [6] in a line: in vivo. As to conditions: Wistar, rat, po, 3 mg/kg. The source holds these as a separate data set.
The nature of series [7]: in vivo. As to conditions: Wistar, rat, po, 10 mg/kg.

For `COCCCN1CCC(NC(=O)c2cc(Cl)c(N)c3c2OCC3)CC1` [PRUCALOPRIDE], the values for the metabolised at 0.5 h in “in vitro [1]” and in the series “in vitro [3]” were 36.9% and 22.1%, respectively. Moreover, in “in vivo [2]”, the clearance was found to be 113 mL/min/kg. The same compound gave an AUC in the series “in vivo [4]” of 828 ng·h/mL. Further, the bioavailability in “in vivo [5]” was 84%. In the series “in vivo [6]”, this compound returned a Cmax of 285 ng/mL.

With `CC(C)c1nc(C(=O)NCC2C3CN(C4CCOCC4)CC23)n2ccccc12` (stereo unspecified), the metabolised at 0.5 h in the series “in vitro [1]” turned out to be 0%; in the series “in vitro [3]” it was 24.4%. For the same compound, the clearance in the series “in vivo [2]” was 62 mL/min/kg. The compound also yielded a Kp at 1 h in the series “in vivo [7]” (brain) of 4. In addition, the AUC in “in vivo [4]” was found to be 121 ng·h/mL. The bioavailability in the series “in vivo [5]” is 15%. In “in vivo [6]”, this compound had a Cmax of 60 ng/mL.

As for `OC1(CN2CCC(COc3noc4cccc(O[C@@H]5CCOC5)c34)CC2)CCOCC1` [PF-04995274], the values for the metabolised at 0.5 h in the series “in vitro [1]” and in “in vitro [3]” were 87.3% and 71.9%, respectively. Besides, the clearance in the series “in vivo [2]” stood at 29 mL/min/kg. In addition, in “in vivo [7]” (brain and plasma), the Kp at 1 h is 0.7. Besides, the AUC in the series “in vivo [4]” is 94 ng·h/mL. The bioavailability in the series “in vivo [5]” amounted to 5.4%. In addition, the Cmax in “in vivo [6]” came to 85 ng/mL.

Take `COCCCN1CCC(CNC(=O)c2cccn3nc(C(C)C)nc23)CC1`: the metabolised at 0.5 h in “in vitro [1]” was determined as 23.4%; in “in vitro [3]”, 2.7%.

With `CC(C)n1c(=O)c(C(=O)NCCCN2CCCCC2)c(O)c2ccsc21` [PRX-03140], the metabolised at 0.5 h was determined as 36.9% in the series “in vitro [1]” and 22.1% in “in vitro [3]”. In “in vivo [7]” (brain and plasma), this compound yielded a Kp at 1 h of 1.5. The compound further gave a bioavailability in the series “in vivo [5]” of 2%.
